Bridge positions count the residues as written; N and C are the ends. Peptide text beside a SMILES is read from it.
Legend:
purified rabbit RyR1 = biological target: T1, purified rabbit RyR1 (Oryctolagus cuniculus, UniProt P11716); test: Planar lipid bilayer single-channel recording, purified RyR1; type: biochemical
T1 construct: we added IpTxa to purified RyR1 incorporated into planar lipid bilayers; from tissue; host or cells: rabbit skeletal muscle (inferred; purified from HSR)
Procedure: (§1) Single-channel recordings of rabbit skeletal RyR1 incorporated into planar lipid bilayers were carried out as described previously. Lipid bilayers, consisting of brain tissue phosphatidylethanolamine and phosphatidylserine (1 : 1) in decane (20 mg/mL) were formed across a hole of approximately 200 μm diameter. Thinning of the bilayer was monitored by bilayer capacitance. The basic composition of the cis/trans solution consisted of 300 mM cesium methanesulfonate, 10 mM Tris/Hepes (pH 7.2), 2 mM EGTA, and 1.998 mM CaCl2 ([Ca^2+]free = 10 μM). [Ca^2+]free was calculated using the “Chelator” program (Theo Schoenmaker). Cs^+ was selected as the charge carrier to ensure precise control of free [Ca^2+], to increase the channel conductance, and to avoid any contribution from potassium channels present in the SR membrane. Chloride channels were inhibited by using the impermeant anion methanesulfonate. Incorporation of ion channels was carried out as described by Miller and Racker and confirmed by recording the characteristically high single-channel conductance of RyRs. The trans side was maintained at ground and the cis side was clamped at −30 mV relative to the ground. After addition of the IpTxa to the cis chamber, the single channel data were collected at −30 mV for 2–5 min. […] Recordings were filtered with an 8-pole low-pass Bessel filter at 1 kHz and digitalized through a Digidata 1200 series interface (Axon Instruments). Data acquisition and analysis were done with the Axon Instruments software, pClamp v7.0.
(§2) Data were analyzed using the Hill equation described previously:
(§3) (1) Psubstate=(Psubstate, max )/[1+(EC50/[IpTxa])^nH] orPo=(Po, max )/[1+(EC50/[IpTxa])^nH], where (Po, max ) is the Po observed at saturating concentrations of IpTxa, EC50 is the IpTxa concentration for which 50% of Po, max is obtained and nH is the Hill coefficient. Also, Psubstate, max is the Psubstate observed at saturating concentrations of IpTxa, EC50 is the IpTxa concentration for which 50% of Psubstate, max is obtained, and nH is the Hill coefficient. The probability of full open state of the channel (Po) was defined as the ratio of the time spent in the open state to the total time exclusive of time spent in the substate. The probability to obtain substate (Psubstate) was calculated as the time spent in the substate divided by a given total recording time. The durations of the substate were obtained by manual positioning of the cursors and constructing all point histograms. Mean duration of substate was measured by total substate time divided by total substate frequencies.
(§4) Results are given as means ± SE. Significant differences were analyzed using Student's t-test. Differences were considered to be significant when P < 0.05. The fitting of the data to the graphs were carried out using the software, Origin v7.
To determine whether the activation of native RyR1 in SR by IpTxa was due to a direct activation of RyR1 or due to an indirect activation through other proteins associated to RyR1, we added IpTxa to purified RyR1 incorporated into planar lipid bilayers (Figure 3(a)). […] Purity of RyR1 at the final purification step was verified by Coomassie blue staining (Supplementary Figure 2).
Figure 3 Effects of IpTxa on purified rabbit RyR1 incorporated in planar lipid bilayers. (a) Single channel activity of purified RyR1 incorporated in planar lipid bilayers at 10 μM Ca^2+ with or without IpTxa (6–100 nM) was recorded. Single channel currents are shown as downward deflections from the closed level (indicated by c). The holding potential was −30 mV. (b) The plot of Po of purified RyR1 versus various concentrations of IpTxa is shown. (c) The plot of Psubstate of purified RyR1 versus various concentrations of IpTxa is shown. The results are shown as the means ± SE for 7 experiments. […]

[1] = biological target: T2, rabbit skeletal RyR1 (native RyR1 in HSR) (Oryctolagus cuniculus, UniProt P11716); test: Planar lipid bilayer single-channel recording, native RyR1 in HSR; type: biochemical; settings: native RyR1 in SR, toxin cis, 6-100 nM, -30 mV, [Ca^2+]free 10 μM, pH 7.2, Hill fit, means ± SE of 3–9 experiments; read-out: EC50 for Psubstate
T2 construct: tested using native RyR1 in rabbit skeletal HSR; from tissue; host or cells: rabbit fast-twitch back and leg muscles (heavy SR vesicles)
Procedure: A heavy fraction of fragmented SR vesicles (HSR) containing junctional SR was prepared from rabbit fast-twitch back and leg muscles as described previously.
as §1, §2, §3, §4
To examine how IpTxa modifies RyR1 activity, RyR1 in HSR incorporated in planar lipid bilayers was tested in the presence or absence of synthetic wild-type IpTxa. The chamber solutions for both cis (cytosolic) and trans (luminal) sides included 300 mM cesium methanesulfonate and 10 mM Tris-Hepes (pH 7.2). 10 μM free Ca^2+ was added to the cis side to activate the incorporated RyR1. After an addition of IpTxa to the cis chamber, the single channel gating properties were recorded at a holding potential of −30 mV for over 2 min at each toxin concentration. […] To examine the effects of IpTxa on full open state, we calculated the probability to obtain the full open state (Po) as the time spent in the open state divided by the total time exclusive of the time spent in the substate. The time for recorded Po was in the range of 30 s–2 min. […] The steady-state Po was 0.18 ± 0.02 at 10 μM Ca^2+. […]

T2 sequence (P11716 whole entry): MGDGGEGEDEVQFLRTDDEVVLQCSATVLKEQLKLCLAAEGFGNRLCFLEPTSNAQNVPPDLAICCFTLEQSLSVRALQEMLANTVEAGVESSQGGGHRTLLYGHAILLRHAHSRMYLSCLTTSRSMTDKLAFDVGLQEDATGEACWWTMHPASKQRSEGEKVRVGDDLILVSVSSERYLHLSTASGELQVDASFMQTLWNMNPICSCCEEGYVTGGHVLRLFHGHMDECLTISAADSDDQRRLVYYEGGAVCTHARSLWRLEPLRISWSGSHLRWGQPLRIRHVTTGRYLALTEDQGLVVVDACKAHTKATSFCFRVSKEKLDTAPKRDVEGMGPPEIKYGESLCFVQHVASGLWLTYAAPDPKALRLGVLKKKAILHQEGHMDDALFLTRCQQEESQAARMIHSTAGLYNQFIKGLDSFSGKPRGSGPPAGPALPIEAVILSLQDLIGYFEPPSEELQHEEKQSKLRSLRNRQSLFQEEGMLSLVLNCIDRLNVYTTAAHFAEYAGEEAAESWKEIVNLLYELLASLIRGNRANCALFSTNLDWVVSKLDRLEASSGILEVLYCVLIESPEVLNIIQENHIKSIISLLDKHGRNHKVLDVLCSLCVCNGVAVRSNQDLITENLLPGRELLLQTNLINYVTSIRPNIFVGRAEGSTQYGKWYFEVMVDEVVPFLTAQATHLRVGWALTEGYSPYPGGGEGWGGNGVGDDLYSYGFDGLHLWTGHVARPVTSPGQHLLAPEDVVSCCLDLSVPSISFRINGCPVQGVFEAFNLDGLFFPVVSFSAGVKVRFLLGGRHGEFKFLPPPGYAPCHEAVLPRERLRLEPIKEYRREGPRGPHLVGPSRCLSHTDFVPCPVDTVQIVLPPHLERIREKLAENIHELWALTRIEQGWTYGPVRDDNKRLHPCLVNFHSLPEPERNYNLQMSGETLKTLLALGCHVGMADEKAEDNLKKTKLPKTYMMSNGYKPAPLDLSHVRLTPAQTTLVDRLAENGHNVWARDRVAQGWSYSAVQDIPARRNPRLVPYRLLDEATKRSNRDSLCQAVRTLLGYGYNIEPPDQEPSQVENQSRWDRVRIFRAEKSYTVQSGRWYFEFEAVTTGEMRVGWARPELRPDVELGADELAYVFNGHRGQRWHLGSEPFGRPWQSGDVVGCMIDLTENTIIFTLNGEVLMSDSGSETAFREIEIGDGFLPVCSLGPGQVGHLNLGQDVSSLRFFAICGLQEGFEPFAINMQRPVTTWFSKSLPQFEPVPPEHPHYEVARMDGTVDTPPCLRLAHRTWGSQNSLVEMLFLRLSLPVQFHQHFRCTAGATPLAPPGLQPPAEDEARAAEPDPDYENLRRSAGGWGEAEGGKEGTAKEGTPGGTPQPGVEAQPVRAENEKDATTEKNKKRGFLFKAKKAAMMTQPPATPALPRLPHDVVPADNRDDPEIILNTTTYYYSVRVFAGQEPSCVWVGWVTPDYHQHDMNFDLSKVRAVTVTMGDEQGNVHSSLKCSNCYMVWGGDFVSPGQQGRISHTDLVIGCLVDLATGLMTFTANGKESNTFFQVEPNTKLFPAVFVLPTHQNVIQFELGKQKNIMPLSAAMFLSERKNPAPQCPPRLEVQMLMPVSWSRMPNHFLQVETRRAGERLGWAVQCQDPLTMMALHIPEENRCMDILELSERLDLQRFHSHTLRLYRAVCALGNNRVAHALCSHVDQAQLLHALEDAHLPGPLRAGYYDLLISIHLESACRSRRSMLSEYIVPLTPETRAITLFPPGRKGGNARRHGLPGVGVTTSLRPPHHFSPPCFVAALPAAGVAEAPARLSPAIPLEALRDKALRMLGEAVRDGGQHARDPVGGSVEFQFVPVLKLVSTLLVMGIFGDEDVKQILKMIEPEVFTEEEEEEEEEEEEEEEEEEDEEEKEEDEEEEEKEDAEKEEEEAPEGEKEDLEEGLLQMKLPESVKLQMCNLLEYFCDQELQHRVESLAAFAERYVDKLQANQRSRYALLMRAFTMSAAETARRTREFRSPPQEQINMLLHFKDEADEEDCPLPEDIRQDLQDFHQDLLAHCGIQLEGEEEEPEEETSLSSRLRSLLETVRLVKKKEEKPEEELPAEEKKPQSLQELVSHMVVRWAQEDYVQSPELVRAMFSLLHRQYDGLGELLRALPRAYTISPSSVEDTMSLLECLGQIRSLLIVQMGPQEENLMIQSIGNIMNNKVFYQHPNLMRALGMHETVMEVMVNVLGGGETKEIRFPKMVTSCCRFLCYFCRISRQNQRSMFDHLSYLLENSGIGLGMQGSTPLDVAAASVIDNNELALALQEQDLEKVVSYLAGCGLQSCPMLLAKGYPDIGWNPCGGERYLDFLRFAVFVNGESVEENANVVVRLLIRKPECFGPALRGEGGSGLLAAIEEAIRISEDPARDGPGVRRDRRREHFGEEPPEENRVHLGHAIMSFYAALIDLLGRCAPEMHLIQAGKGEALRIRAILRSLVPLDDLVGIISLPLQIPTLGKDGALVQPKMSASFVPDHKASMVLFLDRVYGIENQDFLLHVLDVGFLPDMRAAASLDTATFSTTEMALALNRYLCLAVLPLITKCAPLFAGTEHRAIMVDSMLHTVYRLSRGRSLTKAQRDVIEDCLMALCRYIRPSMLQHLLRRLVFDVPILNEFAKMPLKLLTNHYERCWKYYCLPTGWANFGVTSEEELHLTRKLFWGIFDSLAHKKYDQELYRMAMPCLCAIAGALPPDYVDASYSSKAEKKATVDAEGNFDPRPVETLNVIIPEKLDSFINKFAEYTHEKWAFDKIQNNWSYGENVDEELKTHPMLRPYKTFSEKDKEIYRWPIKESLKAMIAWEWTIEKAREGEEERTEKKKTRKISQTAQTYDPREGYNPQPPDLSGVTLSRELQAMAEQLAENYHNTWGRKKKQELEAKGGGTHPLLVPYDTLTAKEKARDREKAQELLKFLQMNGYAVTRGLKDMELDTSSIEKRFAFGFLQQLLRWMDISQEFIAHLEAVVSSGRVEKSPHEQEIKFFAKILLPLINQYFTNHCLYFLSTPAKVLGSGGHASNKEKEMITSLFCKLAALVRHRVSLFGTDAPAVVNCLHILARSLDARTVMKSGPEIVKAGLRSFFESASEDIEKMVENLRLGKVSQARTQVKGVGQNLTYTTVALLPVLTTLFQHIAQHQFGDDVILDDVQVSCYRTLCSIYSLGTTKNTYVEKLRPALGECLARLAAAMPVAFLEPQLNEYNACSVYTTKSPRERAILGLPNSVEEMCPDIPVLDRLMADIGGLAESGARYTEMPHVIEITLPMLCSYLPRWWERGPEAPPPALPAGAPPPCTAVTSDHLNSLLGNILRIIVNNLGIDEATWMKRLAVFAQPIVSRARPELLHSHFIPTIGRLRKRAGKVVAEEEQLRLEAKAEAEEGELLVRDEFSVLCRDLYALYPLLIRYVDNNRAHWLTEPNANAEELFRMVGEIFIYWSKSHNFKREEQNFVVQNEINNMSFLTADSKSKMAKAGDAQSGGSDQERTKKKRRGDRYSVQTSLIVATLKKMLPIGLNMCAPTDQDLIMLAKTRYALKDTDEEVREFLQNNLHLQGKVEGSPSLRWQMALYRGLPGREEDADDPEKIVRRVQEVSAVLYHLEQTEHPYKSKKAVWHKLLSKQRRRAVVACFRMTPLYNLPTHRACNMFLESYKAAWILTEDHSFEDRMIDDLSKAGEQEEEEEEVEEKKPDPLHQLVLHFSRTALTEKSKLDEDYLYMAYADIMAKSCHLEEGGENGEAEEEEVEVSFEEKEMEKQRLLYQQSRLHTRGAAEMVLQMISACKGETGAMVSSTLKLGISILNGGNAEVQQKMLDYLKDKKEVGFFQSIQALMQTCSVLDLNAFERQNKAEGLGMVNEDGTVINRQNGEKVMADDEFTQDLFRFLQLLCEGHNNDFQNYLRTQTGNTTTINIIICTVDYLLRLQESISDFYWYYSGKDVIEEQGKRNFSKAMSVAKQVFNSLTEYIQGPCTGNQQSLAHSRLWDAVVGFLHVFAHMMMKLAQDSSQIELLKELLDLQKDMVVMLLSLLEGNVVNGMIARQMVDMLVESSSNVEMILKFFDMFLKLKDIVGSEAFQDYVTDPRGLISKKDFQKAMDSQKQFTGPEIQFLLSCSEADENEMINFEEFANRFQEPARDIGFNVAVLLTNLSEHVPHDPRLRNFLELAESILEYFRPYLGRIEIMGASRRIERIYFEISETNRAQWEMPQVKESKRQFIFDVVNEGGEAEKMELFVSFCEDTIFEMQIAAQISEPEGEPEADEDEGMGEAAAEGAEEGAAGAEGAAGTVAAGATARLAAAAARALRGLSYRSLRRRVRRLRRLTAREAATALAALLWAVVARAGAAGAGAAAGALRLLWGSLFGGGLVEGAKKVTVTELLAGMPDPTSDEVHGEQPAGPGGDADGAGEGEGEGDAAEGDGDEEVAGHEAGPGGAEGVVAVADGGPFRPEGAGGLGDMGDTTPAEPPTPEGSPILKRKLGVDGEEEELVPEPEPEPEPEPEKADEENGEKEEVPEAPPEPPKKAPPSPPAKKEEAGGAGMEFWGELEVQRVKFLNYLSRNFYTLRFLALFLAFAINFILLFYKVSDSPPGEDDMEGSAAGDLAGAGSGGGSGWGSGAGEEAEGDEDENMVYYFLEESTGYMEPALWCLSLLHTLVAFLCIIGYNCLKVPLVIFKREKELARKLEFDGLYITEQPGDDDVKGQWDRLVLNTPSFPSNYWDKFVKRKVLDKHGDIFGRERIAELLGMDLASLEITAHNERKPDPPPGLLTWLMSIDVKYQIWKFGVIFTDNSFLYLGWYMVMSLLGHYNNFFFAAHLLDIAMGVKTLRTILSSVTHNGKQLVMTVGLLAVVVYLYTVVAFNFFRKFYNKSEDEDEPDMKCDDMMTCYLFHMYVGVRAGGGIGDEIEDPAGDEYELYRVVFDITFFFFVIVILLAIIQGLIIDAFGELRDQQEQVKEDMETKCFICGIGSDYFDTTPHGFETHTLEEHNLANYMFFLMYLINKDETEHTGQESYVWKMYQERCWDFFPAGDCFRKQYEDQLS
T1 sequence (P11716 whole entry): as above

With CC(C)C[C@@H]1NC(=O)[C@H](Cc2c[nH]cn2)NC(=O)[C@@H]2CCCN2C(=O)[C@H](CC(C)C)NC(=O)[C@@H](NC(=O)[C@H](CC(=O)O)NC(=O)CN)CSSC[C@@H]2NC(=O)[C@@H]3CSSC[C@@H](C(=O)N[C@@H](CCCNC(=N)N)C(=O)O)NC(=O)[C@H](C)NC(=O)[C@H](CCCCN)NC(=O)[C@H](CCC(=O)O)NC(=O)[C@H](C)NC(=O)[C@H](CC(N)=O)NC(=O)[C@H]([C@@H](C)O)NC(=O)CNC(=O)[C@H](CCCNC(=N)N)NC(=O)[C@H](CCCNC(=N)N)NC(=O)[C@H](CCCCN)NC(=O)[C@H](CSSC[C@H](NC(=O)[C@H](CCCNC(=N)N)NC(=O)[C@H](CCCCN)NC1=O)C(=O)N[C@@H](CCCCN)C(=O)N[C@@H](C)C(=O)N[C@@H](CC(=O)O)C(=O)N[C@@H](CC(N)=O)C(=O)N[C@@H](CC(=O)O)C(=O)N3)NC(=O)[C@H](CCCCN)NC(=O)[C@H](CCCCN)NC(=O)CNC2=O [R31A] (H-GDCLPHLKRCKADNDCCGKKCKRRGTNAEKACR-OH; disulfide 3-17, 10-21, 16-32) the “EC50 for Psubstate compared with wild type (in words)” value (purified rabbit RyR1; purified RyR1, 6-100 nM) was “without a significant change of EC50”, the EC50 (purified rabbit RyR1; purified RyR1, toxin cis, 6-100 nM, -30 mV, 10 μM Ca^2+, Hill fit, means ± SE of 4–10 experiments, read-out: EC50 for Psubstate) was 18.2 ± 1.65 nM and the EC50 [1] was 19.2 ± 4.65 nM.

With CC(C)C[C@@H]1NC(=O)[C@H](Cc2c[nH]cn2)NC(=O)[C@@H]2CCCN2C(=O)[C@H](CC(C)C)NC(=O)[C@@H](NC(=O)[C@H](CC(=O)O)NC(=O)CN)CSSC[C@@H]2NC(=O)[C@@H]3CSSC[C@@H](C(=O)N[C@@H](CCCNC(=N)N)C(=O)O)NC(=O)[C@H](CCCNC(=N)N)NC(=O)[C@H](CCCCN)NC(=O)[C@H](CCC(=O)O)NC(=O)[C@H](C)NC(=O)[C@H](CC(N)=O)NC(=O)[C@H]([C@@H](C)O)NC(=O)CNC(=O)[C@H](CCCNC(=N)N)NC(=O)[C@H](CCCNC(=N)N)NC(=O)[C@H](C)NC(=O)[C@H](CSSC[C@H](NC(=O)[C@H](CCCNC(=N)N)NC(=O)[C@H](CCCCN)NC1=O)C(=O)N[C@@H](CCCCN)C(=O)N[C@@H](C)C(=O)N[C@@H](CC(=O)O)C(=O)N[C@@H](CC(N)=O)C(=O)N[C@@H](CC(=O)O)C(=O)N3)NC(=O)[C@H](CCCCN)NC(=O)[C@H](CCCCN)NC(=O)CNC2=O [K22A] (H-GDCLPHLKRCKADNDCCGKKCARRGTNAEKRCR-OH; disulfide 3-17, 10-21, 16-32) the EC50 [1] was 18.5 ± 2.88 nM.

In the case of CC(C)C[C@@H]1NC(=O)[C@H](Cc2c[nH]cn2)NC(=O)[C@@H]2CCCN2C(=O)[C@H](CC(C)C)NC(=O)[C@@H](NC(=O)[C@H](C)NC(=O)CN)CSSC[C@@H]2NC(=O)[C@@H]3CSSC[C@@H](C(=O)N[C@@H](CCCNC(=N)N)C(=O)O)NC(=O)[C@H](CCCNC(=N)N)NC(=O)[C@H](CCCCN)NC(=O)[C@H](CCC(=O)O)NC(=O)[C@H](C)NC(=O)[C@H](CC(N)=O)NC(=O)[C@H]([C@@H](C)O)NC(=O)CNC(=O)[C@H](CCCNC(=N)N)NC(=O)[C@H](CCCNC(=N)N)NC(=O)[C@H](CCCCN)NC(=O)[C@H](CSSC[C@H](NC(=O)[C@H](CCCNC(=N)N)NC(=O)[C@H](CCCCN)NC1=O)C(=O)N[C@@H](CCCCN)C(=O)N[C@@H](C)C(=O)N[C@@H](CC(=O)O)C(=O)N[C@@H](CC(N)=O)C(=O)N[C@@H](CC(=O)O)C(=O)N3)NC(=O)[C@H](CCCCN)NC(=O)[C@H](CCCCN)NC(=O)CNC2=O [D2A] (H-GACLPHLKRCKADNDCCGKKCKRRGTNAEKRCR-OH; disulfide 3-17, 10-21, 16-32), the EC50 [1] is reported as 28.6 ± 14 nM.

For CC(C)C[C@@H]1NC(=O)[C@H](Cc2c[nH]cn2)NC(=O)[C@@H]2CCCN2C(=O)[C@H](CC(C)C)NC(=O)[C@@H](NC(=O)[C@H](CC(=O)O)NC(=O)CN)CSSC[C@@H]2NC(=O)[C@@H]3CSSC[C@@H](C(=O)N[C@@H](CCCNC(=N)N)C(=O)O)NC(=O)[C@H](CCCNC(=N)N)NC(=O)[C@H](CCCCN)NC(=O)[C@H](CCC(=O)O)NC(=O)[C@H](C)NC(=O)[C@H](CC(N)=O)NC(=O)[C@H]([C@@H](C)O)NC(=O)CNC(=O)[C@H](CCCNC(=N)N)NC(=O)[C@H](CCCNC(=N)N)NC(=O)[C@H](CCCCN)NC(=O)[C@H](CSSC[C@H](NC(=O)[C@H](C)NC(=O)[C@H](CCCCN)NC1=O)C(=O)N[C@@H](CCCCN)C(=O)N[C@@H](C)C(=O)N[C@@H](CC(=O)O)C(=O)N[C@@H](CC(N)=O)C(=O)N[C@@H](CC(=O)O)C(=O)N3)NC(=O)[C@H](CCCCN)NC(=O)[C@H](CCCCN)NC(=O)CNC2=O [R9A] (H-GDCLPHLKACKADNDCCGKKCKRRGTNAEKRCR-OH; disulfide 3-17, 10-21, 16-32), the EC50 [1] was 19.9 ± 3.16 nM.

With CC(C)C[C@@H]1NC(=O)[C@H](Cc2c[nH]cn2)NC(=O)[C@@H]2CCCN2C(=O)[C@H](CC(C)C)NC(=O)[C@@H](NC(=O)[C@H](CC(=O)O)NC(=O)CN)CSSC[C@@H]2NC(=O)[C@@H]3CSSC[C@@H](C(=O)N[C@@H](CCCNC(=N)N)C(=O)O)NC(=O)[C@H](CCCNC(=N)N)NC(=O)[C@H](CCCCN)NC(=O)[C@H](CCC(=O)O)NC(=O)[C@H](C)NC(=O)[C@H](CC(N)=O)NC(=O)[C@H]([C@@H](C)O)NC(=O)CNC(=O)[C@H](C)NC(=O)[C@H](CCCNC(=N)N)NC(=O)[C@H](CCCCN)NC(=O)[C@H](CSSC[C@H](NC(=O)[C@H](CCCNC(=N)N)NC(=O)[C@H](CCCCN)NC1=O)C(=O)N[C@@H](CCCCN)C(=O)N[C@@H](C)C(=O)N[C@@H](CC(=O)O)C(=O)N[C@@H](CC(N)=O)C(=O)N[C@@H](CC(=O)O)C(=O)N3)NC(=O)[C@H](CCCCN)NC(=O)[C@H](CCCCN)NC(=O)CNC2=O [R24A] (H-GDCLPHLKRCKADNDCCGKKCKRAGTNAEKRCR-OH; disulfide 3-17, 10-21, 16-32) the EC50 [1] was 26 ± 7.01 nM.

For CC(C)C[C@@H]1NC(=O)[C@H](Cc2c[nH]cn2)NC(=O)[C@@H]2CCCN2C(=O)[C@H](CC(C)C)NC(=O)[C@@H](NC(=O)[C@H](CC(=O)O)NC(=O)CN)CSSC[C@@H]2NC(=O)[C@@H]3CSSC[C@@H](C(=O)N[C@@H](CCCNC(=N)N)C(=O)O)NC(=O)[C@H](CCCNC(=N)N)NC(=O)[C@H](CCCCN)NC(=O)[C@H](CCC(=O)O)NC(=O)[C@H](C)NC(=O)[C@H](CC(N)=O)NC(=O)[C@H]([C@@H](C)O)NC(=O)CNC(=O)[C@H](CCCNC(=N)N)NC(=O)[C@H](CCCNC(=N)N)NC(=O)[C@H](CCCCN)NC(=O)[C@H](CSSC[C@H](NC(=O)[C@H](CCCNC(=N)N)NC(=O)[C@H](CCCCN)NC1=O)C(=O)N[C@@H](CCCCN)C(=O)N[C@@H](C)C(=O)N[C@@H](CC(=O)O)C(=O)N[C@@H](CC(N)=O)C(=O)N[C@@H](CC(=O)O)C(=O)N3)NC(=O)[C@H](CCCCN)NC(=O)[C@H](C)NC(=O)CNC2=O [K19A] (H-GDCLPHLKRCKADNDCCGAKCKRRGTNAEKRCR-OH; disulfide 3-17, 10-21, 16-32), the EC50 [1] was 21.8 ± 6.47 nM.

Source: article PMC3192407, “Both Basic and Acidic Amino Acid Residues of IpTxa Are Involved in Triggering Substate of RyR1” (Journal of Biomedicine and Biotechnology, 2011)
